Data from patent US6288122A, “Gardos channel antagonists” (Icagen, Inc., priority 1999, dated 2001).
Values joined by “and” are separate entries in the source; they are usually repeats but may differ in a detail not shown here. Identical values can stand only once. “Also recorded” adds a separate entry of the source. Like-named read-outs stand apart in the source and are kept apart here.

How the values were obtained:
IKs [1] = target: T1, IKs (Cavia porcellus, UniProt O70344); test: Whole cell patch clamp recordings of IKs current in guinea pig myocytes; format: cell-based; conditions: estimated IC50, read-out: Est. IC50 Potency vs. IKs
T1 construct: Recordings of IKs current were made using the whole cell patch clamp methodology on guinea pig myocytes; endogenous in cells; host or cells: guinea pig myocytes (method of Turgeon et al., Circ. Res. 75: 879-86, 1994)

Gardos channel [2] = target: T2, Gardos channel (Homo sapiens, UniProt O15554); test: Inhibition of the Gardos channel in red blood cells (86Rb flux); format: cell-based; conditions: for improvement in potency (Gardos) over non-fluorinated triphenylacetamide 20: vs. compound 20
T2 construct: endogenous in cells; host or cells: red blood cells from heparinized whole blood
Text: The activity of the compounds of the invention towards ion channels, such as the Gardos channel can be assayed utilizing methods known in the art. […] Utilizing the methods described in this reference, both the percent inhibition of the Gardos channel and the IC50 of the compounds of the invention can be assayed.
In an exemplary assay, the inhibition by test compounds of an erythrocyte Gardos channel can be assayed using human red blood cells. The degree of inhibition can be measured using a detectable material such as ^86 Rb. In an exemplary assay, utilizing ^86 Rb, Gardos channel inhibition can be assayed by exposing red blood cells to ^86 Rb and a test compound and measuring the amount of ^86 Rb taken up by the cells. Numerous variations on this assay will be apparent to those of skill in the art.
Briefly, erythrocytes are exposed to a test compound and a ^86 Rb-containing medium. The initial rate of ^86 Rb transport can be calculated from a parameter such as the linear least square slope of ^86 Rb uptake by the cell(s). Inhibitory constants can be calculated by standard methods using computer-assisted nonlinear curve fitting.
Heparinized whole blood was washed three times with Modified Flux Buffer (MFB: 140 mM NaCl; 5 mM KCl; 10 mM Tris; 0.1 mM EGTA; pH=7.4). Washed cells were then incubated for 3 hours with ^86 Rb (5 μCi/mL). After this incubation period, the RBCs were washed three times with cold MFB. Washed ^86 Rb loaded RBCs were then incubated with a test compound of the invention for 10 minutes. ^86 Rb flux was then initiated by the addition of 20 μL/mL of a MFB solution containing 10 mM CaCl2 and 100 μM A23187, a calcium ionophore. This yielded a final concentration of 200 μM CaCl2 and 2 μM A23187 n the incubation medium. Cells were incubated for 10 minutes, spun down and the supernatant was removed. Samples were counted in a Wallace Microbeta liquid scintillation counter by Cerenkov emission. Total RBC ^86 Rb content was determined by lysing the RBCs with water and then precipitating protein using a 50:50 mixture of ethanol:chloroform. After a 20 minute microfuge spin, the aqueous and organic layers separated and the aqueous layer was removed and counted. Efflux is expressed as a percentage of the initial cell content of ^86 Rb.

IKs vs. Gardos = test: Selectivity for the Gardos channel relative to IKs (ratio of IC50s)
Procedure: Recordings of IKs current were made using the whole cell patch clamp methodology on guinea pig myocytes as described in Turgeon et al., Circulation Research 75: 879-86 (1994).
The selectivity of a particular compound for the Gardos channel relative to another potassium ion channel is conveniently determined as a ratio of two compound binding-related quantities (e.g., IC50).
The selectivity of the compounds for the Gardos channel was determined relative to IKs, an exemplary potassium ion channel.

in vitro = conditions: human, microsomes, pH 7.4
Procedure: The stability of the compounds in various biological milieus can be assayed by methods known in the art. In one embodiment, the stability of the compounds is assayed in an in vitro preparation. In a preferred embodiment, the in vitro preparation is a liver microsome preparation.
The reaction mixture contained 1.0 mg/ml human liver microsomal protein, 100 mM potassium phosphate (pH 7.4), 10 mM MgCl2 and an NADPH-generating system. The compounds were tested at a concentration of 5ΓM at 37° C. and the amount of intact compound remaining in the mixture after two hours calculated in terms of percent of original dose remaining.

Gardos channel [3] = conditions: oral therapy; cited from earlier work
sickled cells = conditions: combined with a compound which stabilizes the oxyconformation of Hb S; cited from earlier work
IKs [4] = conditions: myocytes; cited from earlier work
red cell Gardos channel = conditions: oral administration; cited from earlier work
[5] = tested on: Gardos channel of normal and sickle erythrocytes; conditions: cited from earlier work; for inhibition of Gardos channel / Ca2+-activated K+ flux: in vitro
[6] = Pharmacokinetic study in the rat (i.v. and p.o.); format: in vivo, male, Sprague-Dawley rats
Procedure: Pharmacokinctic studies were conducted in rats to extend the finding that selected fluoro substitution of the phenyl rings increased metabolic stability in vitro to an in vivo study. […] Blood samples were collected at 9 time points from predosing to 24 hours after dosing p.o. and at 11 time points from pre-dosing to 24 hours after i.v. dosing. Samples were prepared and analyzed for compound plasma concentration using LC-MS/MS.

[7] = erythrocytes, 86Rb, read-out: IC50 Potency vs. Gardos

T1 sequence (Q60409 whole entry): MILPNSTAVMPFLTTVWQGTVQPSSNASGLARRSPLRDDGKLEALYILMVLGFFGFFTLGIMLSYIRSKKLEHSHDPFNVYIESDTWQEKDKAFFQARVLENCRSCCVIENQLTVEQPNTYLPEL
T1 sequence (O70344 whole entry): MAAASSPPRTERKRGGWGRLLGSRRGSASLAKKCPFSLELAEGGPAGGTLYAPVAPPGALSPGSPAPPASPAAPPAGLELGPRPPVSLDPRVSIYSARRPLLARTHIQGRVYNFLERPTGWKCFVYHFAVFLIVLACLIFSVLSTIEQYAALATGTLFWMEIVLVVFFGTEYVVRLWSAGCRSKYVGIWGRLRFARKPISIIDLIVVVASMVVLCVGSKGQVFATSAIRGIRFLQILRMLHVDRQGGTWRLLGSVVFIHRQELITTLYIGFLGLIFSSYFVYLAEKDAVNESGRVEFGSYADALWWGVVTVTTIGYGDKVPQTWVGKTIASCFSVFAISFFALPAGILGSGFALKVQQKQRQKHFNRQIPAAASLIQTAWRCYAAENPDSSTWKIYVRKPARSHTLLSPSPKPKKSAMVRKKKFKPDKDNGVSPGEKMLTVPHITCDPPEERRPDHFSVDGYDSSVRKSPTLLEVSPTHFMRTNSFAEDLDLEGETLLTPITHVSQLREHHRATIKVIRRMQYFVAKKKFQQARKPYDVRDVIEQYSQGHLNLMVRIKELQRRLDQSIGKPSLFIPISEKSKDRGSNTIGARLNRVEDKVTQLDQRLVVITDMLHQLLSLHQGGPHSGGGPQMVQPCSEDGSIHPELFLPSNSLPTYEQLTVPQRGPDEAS
T2 sequence (O15554 whole entry): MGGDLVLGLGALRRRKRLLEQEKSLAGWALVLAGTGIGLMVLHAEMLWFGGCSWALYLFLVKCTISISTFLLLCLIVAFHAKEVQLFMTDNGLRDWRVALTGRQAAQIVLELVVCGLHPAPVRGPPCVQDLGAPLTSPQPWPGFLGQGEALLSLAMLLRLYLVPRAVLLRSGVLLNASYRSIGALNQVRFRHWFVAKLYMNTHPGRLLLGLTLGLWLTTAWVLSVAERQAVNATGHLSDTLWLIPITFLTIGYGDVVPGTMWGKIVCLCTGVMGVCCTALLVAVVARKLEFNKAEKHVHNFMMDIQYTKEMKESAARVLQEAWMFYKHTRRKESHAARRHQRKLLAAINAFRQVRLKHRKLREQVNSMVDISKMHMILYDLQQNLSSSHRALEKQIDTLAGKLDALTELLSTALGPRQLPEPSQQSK

SMILES | IC50 (IKs [1]) | IC50 (Gardos channel [2]; [7]) | remaining at 2 h, 5 µM (in vitro) | also measured
NC(=O)C(c1ccc(F)cc1)(c1cccc(F)c1)c1cccc(F)c1 [Compound 10] | 1.3 µM | 0.012 µM | 59% | Selectivity (IKs vs. Gardos) (IKs vs. Gardos; ratio of IC50 towards IKs vs. IC50 towards the Gardos channel): 110
Clc1ccccc1C(c1ccccc1)(c1ccccc1)n1ccnc1 [Compound 19, clotrimazole] |  |  | 4% | effects of oral clotrimazole in patients with sickle cell disease (Gardos channel [3]): induces inhibition of the Gardos channel and reduces erythrocyte ehydration; clogging rate of a micropore filter (sickled cells): additive reduction in the clogging rate of a micropore filter; interaction with IKs (IKs [4]): interact with the slow component of the delayed rectifier potassium current in myocytes, IKs; effects of oral clotrimazole in SAD-1 mouse (red cell Gardos channel): inhibition of the red cell Gardos channel, increased red cell K^+ content, a decreased mean corpuscular hemoglobin concentration (MCHC) and decreased cell density; inhibition of Gardos channel / Ca2+-activated K+ flux [5]: specific, potent inhibitor of the Gardos channel of normal and sickle erythrocytes; also recorded: blocks Ca^2+ -activated K^+ flux and cell dehydration in sickle erythrocytes
Clc1ccc(CCC(Cn2ccnc2)Sc2c(Cl)cccc2Cl)cc1 (stereo not shown) [butoconazole] |  |  |  | sickle cell dehydration [5]: effective at reducing sickle cell dehydration; inhibition of Gardos channel / Ca2+-activated K+ flux [5]: inhibit the Gardos channel in vitro
OC(c1ccccc1)(c1ccccc1)c1ccccc1Cl [Compound 21, reference compound] | 2.6 µM |  | 35% | IC50 (Gardos channel [2]): 0.5 µM
NC(=O)C(c1ccccc1)(c1ccc(F)cc1)c1ccc(F)cc1 [Compound 3, bis(4-fluorophenyl)phenylacetamide] | 1.5 µM |  | 76% | metabolised at 2 h, 5 µM (in vitro): 24%; bioavailability ([6]; plasma, po, 10 mg/kg p.o., 1 mg/kg i.v., rat): 100%
NC(=O)C(c1ccccc1)(c1ccc(F)cc1)c1ccccc1F (stereo not shown) [Compound 1, (2-fluorophenyl)-(4-fluorophenyl)phenylacetamide] | 2 µM |  | 64% | oral bioavailability ([6]; 10 mg/kg p.o., 1 mg/kg i.v., rat): 35%
NC(=O)C(c1ccc(F)cc1)(c1ccc(F)cc1)c1ccc(F)cc1 [Compound 13] | 1.1 µM |  | 53% | 
NC(=O)C(c1ccccc1)(c1ccccc1)c1ccc(F)cc1 [Compound 4] |  | 0.013 µM | 80% | 
NC(=O)C(c1ccccc1)(c1ccccc1)c1ccc(F)cc1F [Compound 8] | 5.7 µM | 0.034 µM | 39% | metabolised at 2 h, 5 µM (in vitro): 61%
NC(=O)[C@@](c1ccccc1)(c1ccc(F)cc1)c1ccccc1F [Compound 11] | 1.3 µM | 0.005 µM | 78% | increase in potency (Gardos) of 11 over 9 (Gardos channel [2]): 600%
Clc1ccc(COC(Cn2ccnc2)c2ccc(Cl)cc2Cl)cc1 (stereo not shown) [econazole] |  |  |  | sickle cell dehydration [5]: effective at reducing sickle cell dehydration; inhibition of Gardos channel / Ca2+-activated K+ flux [5]: inhibit the Gardos channel in vitro
NC(=O)C(c1cccc(F)c1)(c1cccc(F)c1)c1cccc(F)c1 [Compound 17] | 4 µM |  | 18% | metabolised at 2 h, 5 µM (in vitro): 82%
NC(=O)[C@](c1ccccc1)(c1ccc(F)cc1)c1ccccc1F [Compound 12] | 1.8 µM | 0.005 µM | 44% | improvement in potency (Gardos) of 12 over 8 (Gardos channel [2]): ~700%; increase in potency (Gardos) over clotrimazole (Gardos channel [2]): 2000%; improvement in potency (Gardos) over non-fluorinated triphenylacetamide 20 (Gardos channel [2]): 1000%
NC(=O)C(c1ccccc1)(c1ccccc1)c1c(F)c(F)c(F)c(F)c1F [Compound 6] |  | 0.037 µM |  | 
NC(=O)C(c1ccccc1)(c1ccccc1)c1ccc(F)c(F)c1 [Compound 7] | 1.2 µM |  | 15% | metabolised at 2 h, 5 µM (in vitro): 85%
NC(=O)C(c1ccccc1)(c1ccccc1)c1ccccc1Cl [Compound 18] | 7.3 µM |  | 6% | IC50 (Gardos channel [2]): 0.01 µM; elimination from the bloodstream ([6]; 1 mg/kg i.v., rat): fast; plasma level after oral dosing ([6]; 10 mg/kg p.o., 2 hour post-dose sample): no detectable levels; plasma level after oral dosing ([6]; 10 mg/kg p.o., between 0.25 and 1 hour after dosing): 31 to 65 ng/mL; oral bioavailability ([6]; 10 mg/kg p.o., rat): very poor oral bioavailability
NC(=O)C(c1ccc(F)cc1)(c1ccc(F)cc1)c1ccccc1F [Compound 5, bis(4-fluorophenyl)-2-fluorophenylacetamide] | 1.4 µM |  | 71% | fold more potent than clotrimazole towards the Gardos channel (Gardos channel [2]): ~10 fold; fold more selective for the Gardos channel versus IKs than clotrimazole (IKs vs. Gardos; vs. clotrimazole): ~18 fold and ~17 fold; fold more selective for the Gardos channel than the unsubstituted triphenylacetamide parent 20 (IKs vs. Gardos; vs. compound 20): approximately 6 fold; metabolised at 2 h, 5 µM (in vitro): 29%
NC(=O)C(c1ccc(F)cc1)(c1ccccc1F)c1ccccc1F [Compound 15] |  |  | 53% | 
NC(=O)C(c1ccccc1)(c1ccccc1)c1ccccc1 [Compound 20, reference compound] | 1.1 µM | 0.05 µM | 13% | metabolised at 2 h, 5 µM (in vitro): 87%
NC(=O)C(c1ccccc1)(c1ccccc1F)c1ccccc1F [Compound 14] |  |  | 46% | 
NC(=O)C(c1ccccc1)(c1ccccc1)c1ccccc1F [Compound 2] |  | 0.015 µM | 80% | improvement in potency (Gardos) over non-fluorinated triphenylacetamide 20 (Gardos channel [2]): 330%
NC(=O)C(c1ccccc1)(c1cccc(F)c1)c1cccc(F)c1 [Compound 9] | 3.2 µM | 0.03 µM | 3% | metabolised at 2 h, 5 µM (in vitro): 97%
CNC(=O)C(c1ccccc1)(c1ccccc1)c1ccccc1 [Compound 22, reference compound] | 2.6 µM | 0.1 µM | 8% | 
NC(=O)C(c1ccc(F)cc1)(c1ccc(F)cc1)c1cccc(F)c1 [Compound 16, bis(4-fluorophenyl)-3-fluorophenylacetamide] | 1.9 µM |  | 57% | 
Clc1ccc(COC(Cn2ccnc2)c2ccc(Cl)cc2Cl)c(Cl)c1 (stereo not shown) [miconazole] |  |  |  | sickle cell dehydration [5]: effective at reducing sickle cell dehydration; inhibition of Gardos channel / Ca2+-activated K+ flux [5]: inhibit the Gardos channel in vitro
